ChEMBL document CHEMBL4819110, “Developments of small molecules as inhibitors for carbonic anhydrase isoforms” (Bioorg Med Chem, 2021)
Values belong to the compound of their own block, whether it stands above or below them. The source made the active and inactive calls. The rule behind the calls is not given here.

How the values were obtained:
Carbonic anhydrase 9 = Carbonic anhydrase 9 (Homo sapiens, UniProt Q16790)
Description: Inhibition of human CA9 by stopped-flow assay

MCF7 = assay: Cytotoxicity against human MCF7 cells; type: functional, cell-based
Carbonic anhydrase 1 = Carbonic anhydrase 1 (Homo sapiens, UniProt P00915)
Chain of Carbonic anhydrase 1 (P00915 whole entry): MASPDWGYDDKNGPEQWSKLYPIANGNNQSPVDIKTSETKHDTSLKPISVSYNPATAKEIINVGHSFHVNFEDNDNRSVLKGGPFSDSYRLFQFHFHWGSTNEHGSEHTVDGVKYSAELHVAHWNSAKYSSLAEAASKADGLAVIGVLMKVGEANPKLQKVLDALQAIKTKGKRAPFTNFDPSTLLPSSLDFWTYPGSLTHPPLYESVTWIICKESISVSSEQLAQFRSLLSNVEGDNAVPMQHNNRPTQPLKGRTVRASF
Description: Inhibition of human CA1 by stopped-flow assay

Carbonic anhydrase 2 = Carbonic anhydrase 2 (Homo sapiens, UniProt P00918)
Description: Inhibition of human CA2 by stopped-flow assay

[1] = target: Mitogen-activated protein kinase 14 (Homo sapiens, UniProt Q16539); assay: Inhibition of p38alphaMAPK (unknown origin)
Chain of Mitogen-activated protein kinase 14 (Q16539 whole entry): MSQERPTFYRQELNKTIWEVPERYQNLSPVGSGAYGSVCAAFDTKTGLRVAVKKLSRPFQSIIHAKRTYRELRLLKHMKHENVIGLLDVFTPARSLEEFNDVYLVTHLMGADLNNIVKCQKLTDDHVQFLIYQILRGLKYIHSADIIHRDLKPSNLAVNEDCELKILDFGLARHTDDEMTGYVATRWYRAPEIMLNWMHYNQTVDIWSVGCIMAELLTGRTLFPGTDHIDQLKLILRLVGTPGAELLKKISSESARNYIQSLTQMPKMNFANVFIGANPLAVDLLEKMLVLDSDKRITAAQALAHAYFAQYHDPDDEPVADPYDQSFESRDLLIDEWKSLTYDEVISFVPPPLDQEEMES

Carbonic anhydrase 4 = Carbonic anhydrase 4 (Homo sapiens, UniProt P22748); assay: Inhibition of human CA4 by stopped-flow assay
Chain of Carbonic anhydrase 4 (P22748 whole entry): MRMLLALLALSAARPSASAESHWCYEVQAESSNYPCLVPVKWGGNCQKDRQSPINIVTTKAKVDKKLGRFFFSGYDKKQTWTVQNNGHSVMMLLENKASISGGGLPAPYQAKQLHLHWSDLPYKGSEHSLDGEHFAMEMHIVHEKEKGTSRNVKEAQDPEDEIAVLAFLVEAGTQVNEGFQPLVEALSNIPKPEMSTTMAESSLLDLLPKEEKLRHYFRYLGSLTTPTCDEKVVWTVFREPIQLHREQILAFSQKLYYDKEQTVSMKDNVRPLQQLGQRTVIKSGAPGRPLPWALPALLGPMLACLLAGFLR

HT-29 [2] = assay: Down regulation of CA9 expression in human HT-29 cells at […] by western blot analysis; type: functional, cell-based
HT-29 [3] = assay: Down regulation of CA12 expression in human HT-29 cells at […] by western blot analysis; type: functional, cell-based
MDA-MB-231 [4] = assay: Induction of apoptosis in human MDA-MB-231 cells assessed as early apoptotic cells at IC50 by flow cytometry analysis (reference value: 0.77 %); type: functional
MDA-MB-231 [5] = assay: Induction of apoptosis in human MDA-MB-231 cells assessed as late apoptotic cells at IC50 by flow cytometry analysis (reference value: 0.26 %); type: functional
MDA-MB-231 [6] = assay: Induction of cell cycle arrest in human MDA-MB-231 cells assessed as increase in sub-G1 accumulation at IC50 by flow cytometry analysis; type: functional, cell-based
MDA-MB-231 [7] = assay: Induction of cell cycle arrest in human MDA-MB-231 cells assessed as […] in G2/M accumulation at IC50 by flow cytometry analysis; type: functional, cell-based
MDA-MB-231 [8] = assay: Induction of apoptosis in human MDA-MB-231 cells assessed as necrotic cells at IC50 by flow cytometry analysis (reference value: 0.51 %); type: functional
Oryctolagus cuniculus = assay: Antiglaucoma activity in rabbit assessed as reduction in intraocular pressure administered topically measured upto 6 hrs; type: functional, organism-based; settings: time hrs <=6

SMILES: NS(=O)(=O)c1ccc(-n2nnc(C(=O)O)c2-c2ccccn2)cc1
Ki (Carbonic anhydrase 9): 1.41 µM

SMILES: NS(=O)(=O)c1ccc(Nc2nc(NN3C(=O)/C(=C\c4ccc(Cl)cc4)N=C3c3ccccc3)cs2)cc1
Ki (Carbonic anhydrase 9): 0.0292 µM | IC50 (MCF7): > 150 µM

SMILES: C[C@@H]1OC[C@@](O)(NC(=O)c2ccc(S(N)(=O)=O)cc2)[C@H](O)[C@H]1O
IC50 (Carbonic anhydrase 9): 0.76 µM

SMILES: NS(=O)(=O)c1ccc(C/N=C/c2c(OCc3cn(CCCOc4ccc5ccc(=O)oc5c4)nn3)ccc3ccccc23)cc1
Activity (HT-29 [2]): Active | Activity (HT-29 [3]): Active

SMILES: NS(=O)(=O)c1ccc(NC(=O)Nc2ccc(/N=C3\C(=O)Nc4ccc(Cl)cc43)cc2)cc1
Ki (Carbonic anhydrase 9): 7430 µM | Activity (MDA-MB-231 [4]): 7.28% | Activity (MDA-MB-231 [5]): 11.26% | Activity (MDA-MB-231 [6]): Active | Activity (MDA-MB-231 [7]): Active | Activity (MDA-MB-231 [8]): 2.47%

SMILES: COC(=O)[C@H]1O[C@@H](NC(=O)c2ccc(S(N)(=O)=O)cc2)[C@H](O)[C@@H](O)[C@@H]1O
Activity (Oryctolagus cuniculus): Active

SMILES: CCN1C(=O)/C(=N\NC(=O)c2ccc(S(N)(=O)=O)cc2)c2ccccc21
Ki (Carbonic anhydrase 9): 0.0089 µM

SMILES: O=Cc1ccccc1OCc1cn(CCCOc2ccc3ccc(=O)oc3c2)nn1
Ki (Carbonic anhydrase 9): 0.0609 µM | Activity (HT-29 [2]): Active | Activity (HT-29 [3]): Active

SMILES: NS(=O)(=O)c1ccc(Nc2nc(NN3C(=O)/C(=C\c4ccccc4)N=C3c3ccccc3)cs2)cc1
IC50 (MCF7): 45.9 µM

SMILES: CN(C)c1ccc(/C=C2/N=C(c3ccccc3)N(Nc3csc(Nc4ccc(S(N)(=O)=O)cc4)n3)C2=O)cc1
IC50 (MCF7): 38.9 µM

SMILES: NS(=O)(=O)c1ccc(-n2nnc(C(=O)N3N=C(c4ccccn4)CC3(O)C(F)(F)F)c2-c2ccc(F)cc2)cc1 (stereo not drawn)
Ki (Carbonic anhydrase 9): 0.0007 µM

SMILES: NS(=O)(=O)c1ccc(C(=O)N[C@@H]2OC[C@@H](O)[C@H](O)[C@H]2O)cc1
Activity (Oryctolagus cuniculus): Active

SMILES: NS(=O)(=O)c1ccc(C(=O)N[C@@H]2O[C@H](CO)[C@@H](O)[C@H](O)[C@@H]2O)cc1
Activity (Oryctolagus cuniculus): Active

Second part, the compound after the results:

Ki (Carbonic anhydrase 9): 0.0124 µM | Ki (Carbonic anhydrase 1): 0.095 µM | Ki (Carbonic anhydrase 2): 0.00083 µM | IC50 [1]: 0.14 µM | Ki (Carbonic anhydrase 4): 0.0069 µM
SMILES: COc1ccc(C2=N/C(=C/c3ccc(O)cc3)C(=O)N2c2ccc(S(N)(=O)=O)cc2)cc1

Ki (Carbonic anhydrase 9): 0.318 µM | Ki (Carbonic anhydrase 4): 0.263 µM
SMILES: CC(=O)n1cc(/C=C2/N=C(c3ccccc3)N(c3ccc(S(N)(=O)=O)cc3)C2=O)c2ccccc21

Ki (Carbonic anhydrase 9): 1.47 µM | Ki (Carbonic anhydrase 4): > 10 µM
SMILES: CC(=O)NS(=O)(=O)c1ccc(N2C(=O)/C(=C\c3cn(C(C)=O)c4ccccc34)N=C2c2ccccc2)cc1

Ki (Carbonic anhydrase 9): 0.0587 µM
SMILES: NS(=O)(=O)c1ccc(N2C(=O)/C(=C\c3ccccc3)N=C2c2ccccc2)cc1

Ki (Carbonic anhydrase 9): 0.023 µM
SMILES: COc1ccc(OC)c(/C=C2/N=C(c3ccccc3)N(c3ccc(S(N)(=O)=O)cc3)C2=O)c1

Ki (Carbonic anhydrase 9): 0.0682 µM
SMILES: COc1cc(/C=C2/N=C(c3ccccc3)N(c3ccc(S(N)(=O)=O)cc3)C2=O)cc(OC)c1OC

Ki (Carbonic anhydrase 9): > 10 µM | Ki (Carbonic anhydrase 1): > 10 µM | Ki (Carbonic anhydrase 2): > 10 µM | Ki (Carbonic anhydrase 4): > 10 µM
SMILES: CC(=O)n1cc(/C=C2/N=C(c3ncccn3)N(c3ccc(S(N)(=O)=O)cc3)C2=O)c2ccccc21
